Test results as given in ChEMBL document CHEMBL2375303, “Molecular determinants for nuclear receptors selectivity: chemometric analysis, dockings and site-directed mutagenesis of dual peroxisome proliferator-activated receptors α/γ agonists” (Eur J Med Chem, 2013).

Columns and labels:
Format in all cases: cell-based
[1] = biological target: T1, Peroxisome proliferator-activated receptor gamma (Homo sapiens, UniProt P37231); assay: Agonist activity at GAL4-fused PPARgamma (unknown origin) expressed in human HepG2 cells by transactivation assay
T1 sequence (P37231 whole entry): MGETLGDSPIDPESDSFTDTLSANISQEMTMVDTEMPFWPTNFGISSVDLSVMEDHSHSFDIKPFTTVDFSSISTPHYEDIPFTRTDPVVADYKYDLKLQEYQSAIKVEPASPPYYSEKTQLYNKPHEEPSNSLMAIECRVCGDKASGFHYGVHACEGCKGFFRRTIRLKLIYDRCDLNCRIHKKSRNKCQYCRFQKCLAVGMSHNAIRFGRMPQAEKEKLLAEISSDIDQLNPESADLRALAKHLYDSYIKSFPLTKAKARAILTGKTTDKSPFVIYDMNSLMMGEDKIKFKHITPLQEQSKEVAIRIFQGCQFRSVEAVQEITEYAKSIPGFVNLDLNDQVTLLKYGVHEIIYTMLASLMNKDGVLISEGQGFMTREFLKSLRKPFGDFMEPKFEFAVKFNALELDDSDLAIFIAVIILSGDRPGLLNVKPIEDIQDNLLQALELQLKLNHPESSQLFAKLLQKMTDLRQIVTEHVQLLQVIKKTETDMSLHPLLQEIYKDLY

[2] = biological target: T2, Peroxisome proliferator-activated receptor alpha (Homo sapiens, UniProt Q07869); assay: Agonist activity at GAL4-fused PPARalpha (unknown origin) expressed in human HepG2 cells by transactivation assay
T2 sequence (Q07869 whole entry): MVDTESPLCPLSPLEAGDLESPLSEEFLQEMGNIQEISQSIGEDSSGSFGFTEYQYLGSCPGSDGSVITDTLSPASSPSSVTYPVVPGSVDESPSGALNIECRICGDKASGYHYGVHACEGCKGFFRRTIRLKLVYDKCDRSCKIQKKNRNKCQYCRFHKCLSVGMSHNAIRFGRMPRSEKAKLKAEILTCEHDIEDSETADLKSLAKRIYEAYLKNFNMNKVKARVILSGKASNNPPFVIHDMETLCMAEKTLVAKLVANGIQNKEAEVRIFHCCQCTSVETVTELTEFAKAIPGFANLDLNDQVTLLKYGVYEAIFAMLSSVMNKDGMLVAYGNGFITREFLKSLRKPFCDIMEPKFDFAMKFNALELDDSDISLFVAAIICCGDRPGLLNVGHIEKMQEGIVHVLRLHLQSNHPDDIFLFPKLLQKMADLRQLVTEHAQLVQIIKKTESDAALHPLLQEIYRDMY

[3] = biological target: Peroxisome proliferator-activated receptor alpha (Homo sapiens, UniProt Q07869, A454M); assay: Agonist activity at GAL4-fused PPARalpha A454M mutant (unknown origin) expressed in human HepG2 cells by transactivation assay
[4] = Agonist activity at GAL4-fused PPARgamma M463A mutant (unknown origin) expressed in human HepG2 cells by transactivation assay

Chain of Peroxisome proliferator-activated receptor alpha (Homo sapiens, UniProt Q07869, A454M) (Q07869 whole entry A454M, the tested form may be a part): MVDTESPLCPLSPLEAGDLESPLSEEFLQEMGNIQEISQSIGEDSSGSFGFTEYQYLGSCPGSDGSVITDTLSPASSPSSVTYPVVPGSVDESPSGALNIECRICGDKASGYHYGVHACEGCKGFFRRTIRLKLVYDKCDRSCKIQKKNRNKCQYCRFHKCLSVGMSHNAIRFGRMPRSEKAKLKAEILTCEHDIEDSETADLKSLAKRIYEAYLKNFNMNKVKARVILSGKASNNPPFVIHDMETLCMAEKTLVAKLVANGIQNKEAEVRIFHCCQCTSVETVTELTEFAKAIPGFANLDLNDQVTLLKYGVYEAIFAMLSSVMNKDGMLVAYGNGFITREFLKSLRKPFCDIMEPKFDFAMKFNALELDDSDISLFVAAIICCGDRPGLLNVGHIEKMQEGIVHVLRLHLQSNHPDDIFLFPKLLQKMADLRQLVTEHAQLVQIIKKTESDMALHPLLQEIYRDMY

SMILES | EC50 ([1]; read-out: pEC50 (converted)) | EC50 ([2]; read-out: pEC50 (converted)) | EC50 [3] | EC50 ([1]; read-out: EC50) | EC50 [4] | EC50 ([2]; read-out: EC50)
O=C(O)[C@H](CCCc1ccc(Cl)cc1)Oc1ccc(Cl)cc1 | 316 nM | 631 nM | – | – | – | –
O=C(O)[C@H](Cc1ccccc1)Oc1ccc(Oc2ccccc2)cc1 | 1580 nM | 891 nM | – | – | – | –
O=C(O)[C@H](Cc1ccccc1)Oc1ccc(-c2ccc(Cl)cc2)cc1 | 8910 nM | 3890 nM | – | – | – | –
O=C(O)[C@H](Cc1ccc(C(F)(F)F)cc1)Oc1ccc(Cl)cc1 | 417 nM | 3630 nM | – | – | – | –
O=C(O)[C@H](Cc1ccc(Oc2ccccc2)cc1)Oc1ccc(Cl)cc1 | 26.9 nM | 871 nM | 900 nM | 320 nM | 340 nM | 3900 nM
O=C(O)[C@H](Cc1ccc(-c2ccccc2)cc1)Oc1ccc(Cl)cc1 | 49 nM | 1120 nM | – | – | – | –
O=C(O)[C@H](Cc1ccc(-c2cccs2)cc1)Oc1ccc(Cl)cc1 | 64.6 nM | 589 nM | – | – | – | –
O=C(O)[C@H](Cc1ccccc1)Oc1ccc(Cc2ccccc2)cc1 | – | – | 400 nM | 600 nM | 470 nM | 40 nM

Second part, the compound after the results:

EC50 ([1]; read-out: pEC50 (converted)) | EC50 ([2]; read-out: pEC50 (converted)) | EC50 [3] | EC50 ([1]; read-out: EC50) | EC50 [4] | EC50 ([2]; read-out: EC50) | SMILES
7080 nM | 2400 nM | – | – | – | – | O=C(O)[C@H](CCc1ccccc1)Oc1ccc(Cl)cc1
912 nM | 589 nM | – | – | – | – | O=C(O)[C@H](CCCc1ccccc1)Oc1ccc(Cl)cc1
1660 nM | 2510 nM | – | – | – | – | O=C(O)[C@H](COc1ccccc1)Oc1ccc(Cl)cc1
1260 nM | 3020 nM | – | – | – | – | O=C(O)[C@H](CCOc1ccccc1)Oc1ccc(Cl)cc1
– | – | – | – | 2 nM | – | CN(CCOc1ccc(CC2SC(=O)NC2=O)cc1)c1ccccn1 (stereo unspecified) [ROSIGLITAZONE]
